According to patent US9126980B2, “Compounds for inhibiting the interaction of BCL2 with binding partners” (Novartis AG, priority 2011, dated 2015):
Read-outs that look alike come from different tables or passages of the source.

Experiments:
[1] = molecular target: BCL-2 binding to biotinylated BAD peptide (Homo sapiens (Human), UniProt P10415); assay: SPR (Biacore) solution inhibition assay, BCL-2 binding to BAD peptide surface; conditions: read-out: BCL2_SPR IC50 BAD
Description: (§1) The present method includes utility of a Surface plasmon resonance (SPR)-based biosensor (Biacore™′ GE Healthcare, Uppsala, Sweden) to characterize BCL-2 inhibitors.
(§2) Biacore™ utilizes the phenomenon of surface plasmon resonance (SPR) to detect and measure binding interactions. In a typical Biacore experiment, one of the interacting molecules (ligand) is immobilized on a flexible dextran matrix while the interacting partner (analyte) is allowed to flow across that surface. A binding interaction results in an increase in mass on the sensor surface and a corresponding direct change in the refractive index of the medium in the vicinity of the sensor surface. Changes in refractive index or signal are recorded in resonance units (R.U.) Signal changes due to association and dissociation of complexes are monitored in a non-invasive manner, continuously and in real-time, the results of which are reported in the form of a sensorgram.
(§3) The SPR assay is configured to examine solution inhibition of BCL-2 binding to peptide derivatized sensor surfaces to generate IC50 values as a measure of inhibitor potency.
(§4) Solution Inhibition Assay Format:
(§5) Biacore™ A100 (GE Healthcare, Uppsala, Sweden) was used to conduct all experiments reported herein. Sensor surface preparation and all interaction analyses experiments were performed at 25° C. Reagents were purchased from GE Healthcare. Running buffer containing 10 mM Hepes, pH7.4, 150 mM sodium chloride, 1.25 mM Dithiothreitol, 3% Dimethyl sulfoxide and 0.05% polysorbate 20 were utilized throughout all analyses.
(§6) Biotinylated BAK, BAD and NOXA peptides were diluted to 10 nM in running buffer and captured onto a sensor surface pre-derivatized with streptavidin (sensor chip SA) to peptide surface densities in the range 50-100 R.U. Peptide captured surfaces were blocked with 500 μM PEO2-Biotin.
(§7) Interaction analyses were performed by first equilibrating each sample within a 6 point three fold compound dilution series in the range […] with 56 nM BCL-2 for one hour during instrument start-up procedures. Protein compound mixtures were then injected over each peptide surface in parallel for 60 seconds at a flow-rate of 30 μL/min. 56 nM BCL-2 control samples were also prepared and run at regular intervals during the assay. Surface regeneration was performed at the end of each analysis cycle by two 30 second injections of 10 mM Glycine, pH 2.5, 1M Sodium Chloride, 0.05% polysorbate 20. Samples and control compound samples were run in duplicate and controls are also run at regular intervals during the assay to monitor surface and assay performance.
(§8) Data analyses are carried out using Biacore™ A100 evaluation software v1.1 to validate assay quality. Binding level report points were used relative to BCL-2 control samples to calculate % inhibition values for each compound protein mixture. […] The range of data shown in table 1 represents the high and low IC50 values obtained from multiple experiments.

[2] = molecular target: BCL-2 binding to biotinylated BAK peptide (Homo sapiens (Human), UniProt P10415); assay: SPR (Biacore) solution inhibition assay, BCL-2 binding to BAK peptide surface; conditions: read-out: BCL2_SPR IC50 BAK
Description: as §1, §2, §3, §4, §5, §6, §7, §8

[3] = high and low IC50 values from multiple experiments, 56 nM BCL-2, BAD peptide sensor surface, 25° C.
[4] = high and low IC50 values from multiple experiments, 56 nM BCL-2, BAK peptide sensor surface, 25° C.

Sequence of BCL-2 binding to biotinylated BAD peptide (P10415 whole entry): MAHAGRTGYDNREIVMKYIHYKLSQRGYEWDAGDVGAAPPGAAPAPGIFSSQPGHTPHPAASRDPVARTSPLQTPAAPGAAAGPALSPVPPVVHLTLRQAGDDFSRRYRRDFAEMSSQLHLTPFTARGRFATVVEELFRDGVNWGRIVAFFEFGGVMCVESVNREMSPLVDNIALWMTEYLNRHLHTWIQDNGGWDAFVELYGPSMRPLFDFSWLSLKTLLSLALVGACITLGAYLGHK
Sequence of BCL-2 binding to biotinylated BAK peptide (P10415 whole entry): as above

Row | IC50 [1] [µM] | IC50 [2] [µM] | IC50 [1, 3] [µM] | IC50 [2, 4] [µM] | Compound
1 | 0.629 to 0.756 | 0.474 to 0.564 |  |  | CCCCN(CCCC)C(=O)c1cc(C)n(-c2ccc(NS(=O)(=O)c3ccccc3)cc2C(=O)N2Cc3ccccc3C[C@H]2CO)n1 (stereo in doubt) [Example 1, N,N-dibutyl-1-(2-(3-(hydroxymethyl)-1,2,3,4-tetrahydroisoquinoline-2-carbonyl)-4-(phenylsulfonamido)phenyl)-5-methyl-1H-pyrazole-3-carboxamide]
2 | 0.367 to 0.387 | 0.26 to 0.33 |  |  | CCCCN(CCCC)C(=O)c1cc(C)n(-c2ccc(NS(C)(=O)=O)cc2C(=O)N2Cc3ccccc3C[C@H]2CO)n1 [Example 2]
3 | 0.126 to 0.127 | 0.0878 to 0.093 |  |  | CCCCN(CCCC)C(=O)c1cc(C)n(-c2ccc(NS(=O)(=O)C(C)C)cc2C(=O)N2Cc3ccccc3C[C@H]2CO)n1 [Example 3]
4 |  |  | > 16 |  | CCCCN(CCCC)C(=O)c1cc(C)n(-c2ccc(NS(=O)(=O)c3ccc(-c4ccc(Cl)cc4)cc3)cc2C(=O)N2Cc3ccccc3C[C@H]2CO)n1 [Example 9]
5 |  |  | > 16 | 3.02 to 3.68 | CCCCN(CCCC)C(=O)c1cc(C)n(-c2ccc(NS(=O)(=O)c3ccc(Oc4ccccc4C)cc3)cc2C(=O)N2Cc3ccccc3C[C@H]2CO)n1 [Example 10]
6 |  |  |  | 0.435 to 0.683 | CCCCN(CCCC)C(=O)c1cc(C)n(-c2ccc(NS(=O)(=O)c3ccccc3Cl)cc2C(=O)N2Cc3ccccc3C[C@H]2CO)n1 [Example 14]
7 |  |  |  | 0.828 to 0.871 | CCCCN(CCCC)C(=O)c1cc(C)n(-c2ccc(NS(=O)(=O)c3cc(Cl)ccc3F)cc2C(=O)N2Cc3ccccc3C[C@H]2CO)n1 [Example 17]
8 |  |  | 0.418 to 0.436 | 0.252 to 0.257 | CCCCN(CCCC)C(=O)c1cc(C)n(-c2ccc(NS(=O)(=O)c3ccc(NC(C)=O)c(Cl)c3)cc2C(=O)N2Cc3ccccc3C[C@H]2CO)n1 [Example 25]
9 |  |  |  | 2.28 to 2.51 | CCCCN(CCCC)C(=O)c1cc(C)n(-c2ccc(NS(=O)(=O)c3ccc(CNC(=O)c4ccc(Cl)cc4)s3)cc2C(=O)N2Cc3ccccc3C[C@H]2CO)n1 [Example 30]
